{
  "source": "patent US20240100193A1",
  "about": "“Self-complementary AAV vectors carrying dominant negative RhoA and methods of use to treat ocular diseases” (iView Therapeutics, Inc., priority 2022, published 2024)",
  "test_system": "ROCK",
  "test": "ROCK Activity Assay Kit on HTM cell lysates treated with ROCK activator or inhibitor",
  "assay_type": "biochemical, human",
  "details": "for relative ROCK activity normalized to the no drug treated cell lysate: HTM cell lysate",
  "experimental": "The ROCK Activity Assay Kit is an enzyme immunoassay developed for detection of the specific phosphorylation of MYPT1 at Thr696 by ROCK. A strip-well microtiter plate is precoated with a recombinant MYPT1. After incubating the substrate wells with ROCK samples, the phosphorylated MYPT1 is detected by an anti-phospho-MYPT1 (Thr696) antibody.\nHuman trabecular meshwork cells were seeded into 12-well plates at the density of 500,000 cells per well. 48 hours after seeding, cells were harvested with cell lysis buffer. Cell lysates were treated with ROCK activator or ROCK inhibitor before incubating with precoated strip-wells. The ROCK activity was then measured with the protocol of the kit. Three chemicals were used to activate ROCK: S1P (Sphingosine-1 phosphate at 1 μM), LPA (Oleoyl L-lysophosphatidic acid at 10 μM) and DMOG (Dimethyloxalylglycine at 0.5 mM). […] Data was presented as relative ROCK activity normalized to the no drug treated cell lysate.",
  "data": [
    {"molecule": "COC(=O)CNC(=O)C(=O)OC", "note": "[DMOG, Dimethyloxalylglycine]", "values": [
      {"measurement": "relative ROCK activity normalized to the no drug treated cell lysate", "setting": "DMOG at 0.5 mM", "result": "increased"}
    ]},
    {"molecule": "CCCCCCCCCCCCC/C=C/[C@@H](O)[C@@H](N)COP(=O)(O)O", "note": "[S1P, Sphingosine-1 phosphate]", "values": [
      {"measurement": "relative ROCK activity normalized to the no drug treated cell lysate", "setting": "S1P at 1 μM", "result": "increased"}
    ]},
    {"molecule": "C[C@@H](N)[C@H]1CC[C@H](C(=O)Nc2ccncc2)CC1", "note": "[Y-27632]", "values": [
      {"measurement": "relative ROCK activity normalized to the no drug treated cell lysate", "setting": "Y-27632 at 50 μM", "result": "decreased"}
    ]},
    {"molecule": "Oleoyl L-lysophosphatidic acid [LPA]", "values": [
      {"measurement": "rank among the chemical ROCK activators", "setting": "LPA 10 μM compared with S1P 1 μM and DMOG 0.5 mM", "result": "most potent activator"},
      {"measurement": "relative ROCK activity normalized to the no drug treated cell lysate", "setting": "LPA at 10 μM", "result": "increased"}
    ]}
  ]
}
